Measured values: ChEMBL document CHEMBL3885861, “Open TG-GATES”

Organism: Rattus norvegicus
Test: Open TG-GATES - Regimen: Single
Format: toxicity, organism-based, Sprague-Dawley
Design: regimen Single, gender Male, age 6 weeks
Details: in vivo, po, 0 mg/kg, route gavage, dose level Control; for APTT / Bas / Eos / Fbg / Hb / Ht / Lym / MCH / MCHC / MCV / Mono / Neu / PT / Plat / RBC / Ret / WBC: tissue Blood; for KIDNEY_L / KIDNEY_R / KIDNEY_TOTAL: tissue Kidney; for LIVER: tissue Liver; for A/G / ALP / ALT / AST / BUN / CRE / Ca / Cl / DBIL / GLC / IP / K / LDH / Na / PL / RALB / TBIL / TC / TG / TP / gamma-GTP: tissue Plasma

SMILES: Cc1cccc(Nc2ccccc2C(=O)O)c1C [MEFENAMIC ACID]
- TERMINAL_BW (3 h): 216.3 g
- APTT (3 h): 18.2 s
- Bas (3 h): 0%
- Eos (3 h): 1%
- Fbg (3 h): 217.8 mg/dL
- Hb (3 h): 13.2 g/dL
- Ht (3 h): 37.1%
- Lym (3 h): 77.8%
- MCH (3 h): 21.9 pg
- MCHC (3 h): 35.5%
- MCV (3 h): 61.9 fL
- Mono (3 h): 2.4%
- Neu (3 h): 16.4%
- PT (3 h): 12.4 s
- Plat (3 h): 117.6 x10_4/uL
- RBC (3 h): 600.2 x10_4/ul
- Ret (3 h): 7.4%
- WBC (3 h): 74.9 x10_2/uL
- KIDNEY_L (3 h): 1 g
- KIDNEY_R (3 h): 1 g
- KIDNEY_TOTAL (3 h): 1.9 g
- LIVER (3 h): 9.7 g
- A/G (3 h): 1.7
- ALP (3 h): 1061 IU/L
- ALT (3 h): 35 IU/L
- AST (3 h): 67 IU/L
- BUN (3 h): 10.8 mg/dL
- CRE (3 h): 0.4 mg/dL
- Ca (3 h): 10.9 mg/dL
- Cl (3 h): 103 meq/L
- DBIL (3 h): 0.078 mg/dL
- GLC (3 h): 190.4 mg/dL
- IP (3 h): 9 mg/dL
- K (3 h): 4.1 meq/L
- LDH (3 h): 213 IU/L
- Na (3 h): 140.8 meq/L
- PL (3 h): 145.8 mg/dL
- RALB (3 h): 3.5 g/dL
- TBIL (3 h): 0.1 mg/dL
- TC (3 h): 80 mg/dL
- TG (3 h): 49 mg/dL
- TP (3 h): 5.6 g/dL
- gamma-GTP (3 h): 1.2 IU/L
- TERMINAL_BW (6 h): 214.5 g
- APTT (6 h): 18.6 s
- Bas (6 h): 0%
- Eos (6 h): 1%
- Fbg (6 h): 219.4 mg/dL
- Hb (6 h): 13.2 g/dL
- Ht (6 h): 37.2%
- Lym (6 h): 80.6%
- MCH (6 h): 22 pg
- MCHC (6 h): 35.5%
- MCV (6 h): 61.9 fL
- Mono (6 h): 2.4%
- Neu (6 h): 15%
- PT (6 h): 13 s
- Plat (6 h): 107.7 x10_4/uL
- RBC (6 h): 601.8 x10_4/ul
- Ret (6 h): 7.8%
- WBC (6 h): 87.4 x10_2/uL
- KIDNEY_L (6 h): 1 g
- KIDNEY_R (6 h): 1 g
- KIDNEY_TOTAL (6 h): 2 g
- LIVER (6 h): 8.8 g
- A/G (6 h): 1.6
- ALP (6 h): 898.6 IU/L
- ALT (6 h): 36.8 IU/L
- AST (6 h): 65.4 IU/L
- BUN (6 h): 8.6 mg/dL
- CRE (6 h): 0.3 mg/dL
- Ca (6 h): 10.3 mg/dL
- Cl (6 h): 102.8 meq/L
- DBIL (6 h): 0.062 mg/dL
- GLC (6 h): 183.4 mg/dL
- IP (6 h): 8.9 mg/dL
- K (6 h): 4.2 meq/L
- LDH (6 h): 172 IU/L
- Na (6 h): 139.6 meq/L
- PL (6 h): 134.6 mg/dL
- RALB (6 h): 3.3 g/dL
- TBIL (6 h): 0.1 mg/dL
- TC (6 h): 79.4 mg/dL
- TG (6 h): 39.8 mg/dL
- TP (6 h): 5.4 g/dL
- gamma-GTP (6 h): 1 IU/L
- TERMINAL_BW (9 h): 214.7 g
- APTT (9 h): 18.8 s
- Bas (9 h): 0%
- Eos (9 h): 1%
- Fbg (9 h): 228.8 mg/dL
- Hb (9 h): 13.6 g/dL
- Ht (9 h): 38.3%
- Lym (9 h): 78.6%
- MCH (9 h): 22.2 pg
- MCHC (9 h): 35.6%
- MCV (9 h): 62.6 fL
- Mono (9 h): 2.2%
- Neu (9 h): 17.2%
- PT (9 h): 12.8 s
- Plat (9 h): 106.8 x10_4/uL
- RBC (9 h): 613 x10_4/ul
- Ret (9 h): 7.1%
- WBC (9 h): 75.3 x10_2/uL
- KIDNEY_L (9 h): 1 g
- KIDNEY_R (9 h): 1 g
- KIDNEY_TOTAL (9 h): 2 g
- LIVER (9 h): 8.7 g
- A/G (9 h): 1.7
- ALP (9 h): 891.2 IU/L
- ALT (9 h): 32.6 IU/L
- AST (9 h): 64.2 IU/L
- BUN (9 h): 10.6 mg/dL
- CRE (9 h): 0.3 mg/dL
- Ca (9 h): 10.4 mg/dL
- Cl (9 h): 102.8 meq/L
- DBIL (9 h): 0.074 mg/dL
- GLC (9 h): 202.6 mg/dL
- IP (9 h): 8.9 mg/dL
- K (9 h): 3.8 meq/L
- LDH (9 h): 187.4 IU/L
- Na (9 h): 141 meq/L
- PL (9 h): 136.4 mg/dL
- RALB (9 h): 3.5 g/dL
- TBIL (9 h): 0.1 mg/dL
- TC (9 h): 75.2 mg/dL
- TG (9 h): 55.4 mg/dL
- TP (9 h): 5.6 g/dL
- gamma-GTP (9 h): 1 IU/L
- TERMINAL_BW (24 h): 229.4 g
- APTT (24 h): 18 s
- Bas (24 h): 0%
- Eos (24 h): 1%
- Fbg (24 h): 214.8 mg/dL
- Hb (24 h): 13.4 g/dL
- Ht (24 h): 38.5%
- Lym (24 h): 79.2%
- MCH (24 h): 22.4 pg
- MCHC (24 h): 34.8%
- MCV (24 h): 64.2 fL
- Mono (24 h): 2%
- Neu (24 h): 16.4%
- PT (24 h): 12 s
- Plat (24 h): 116.5 x10_4/uL
- RBC (24 h): 599.6 x10_4/ul
- Ret (24 h): 6.7%
- WBC (24 h): 80 x10_2/uL
- KIDNEY_L (24 h): 1 g
- KIDNEY_R (24 h): 1 g
- KIDNEY_TOTAL (24 h): 2.1 g
- LIVER (24 h): 11.1 g
- A/G (24 h): 1.5
- ALP (24 h): 943.6 IU/L
- ALT (24 h): 39 IU/L
- AST (24 h): 66 IU/L
- BUN (24 h): 13.6 mg/dL
- CRE (24 h): 0.4 mg/dL
- Ca (24 h): 10.9 mg/dL
- Cl (24 h): 102.8 meq/L
- DBIL (24 h): 0.1 mg/dL
- GLC (24 h): 193.2 mg/dL
- IP (24 h): 7.9 mg/dL
- K (24 h): 4.1 meq/L
- LDH (24 h): 223.6 IU/L
- Na (24 h): 140.2 meq/L
- PL (24 h): 147.8 mg/dL
- RALB (24 h): 3.4 g/dL
- TBIL (24 h): 0.2 mg/dL
- TC (24 h): 74.6 mg/dL
- TG (24 h): 120.4 mg/dL
- TP (24 h): 5.7 g/dL
- gamma-GTP (24 h): 1.4 IU/L
